Data on 1 molecule can be found in US9085756B2, “Drug screening using islet cells and islet cell progenitors from human embryonic stem cells” (Asterias Biotherapeutic, Inc., priority 2001, dated 2015).

The subject of this assay is hES cells. Briefly: Hepatocyte differentiation of hES cells, morphology. It is filed as cell-based, human. To be noted: 4 days in medium containing butyrate (after 1% DMSO pre-differentiation). The source says: Undifferentiated hES cells were differentiated into cells having characteristics of human hepatocytes using a strategy to initiate a global differentiation process using DMSO in a subconfluent culture. The cells are then induced to form hepatocyte-like cells by the addition of Na-butyrate.
Briefly, the hES cells were maintained in undifferentiated culture conditions for 2-3 days after splitting. At this time, the cells were 50 to 60% confluent and the medium was exchanged with unconditioned SR medium containing 1% DMSO (Step II). The cultures were fed daily with SR medium for 4 days and then exchanged into unconditioned SR medium containing both 1% DMSO and […] Na-butyrate, with which they were fed daily for 6 days (Step III). They were then replated onto collagen, and cultured in a hepatocyte maturation medium containing a cocktail of hepatocyte-friendly growth factors (Step IV).

On to `CCCC(=O)[O-].[Na+]` [butyrate, sodium n-butyrate], for which the “Cells in the culture with large nuclei and granular cytoplasm” value is on record as “more than 80%”. Under “listed as sodium n-butyrate”, the “Cells in the culture with large nuclei and granular cytoplasm” value is on record as “More than 80%”.
